We go through 17 compounds from patent US11261211B2, “19-NOR neuroactive steroids and methods of use thereof” (Sage Therapeutics, Inc., priority 2013, dated 2022).

This assay has as its target α1β2γ2 GABAA receptor (Homo sapiens (Human), UniProt P14867+P47870). Nature of the assay: Patch clamp electrophysiology of recombinant α1β2γ2 GABAA receptors in LTK cells. In kind it is cell-based. The following applies: for activity at 10 µM / Emax: LTK; for activity at 10 µM / α1β2γ2 GABA Qpatch in Ltk (Efficacy at 10 μm): 10 μM compound, Qpatch, Ltk cells, GABA EC20 2 μM; for activity at 10 µM: read-out: α1β2γ2 GABA Qpatch in Ltk (Efficacy at 10 μm); for Emax / pEC50: potentiation of GABA EC20 (2 μM) current; for Emax: read-out: GABAa alpha1 (α1β2γ2) Emax (%); for pEC50: read-out: GABAa alpha1 (α1β2γ2)EC50. The protocol: Cellular electrophysiology is used to measure the pharmacological properties of our GABAA receptor modulators in heterologous cell systems. Each compound is tested for its ability to affect GABA mediated currents at a submaximal agonist dose (GABA EC20=2 μM). LTK cells are stably transfected with the α1β2γ2 subunits of the GABA receptor and CHO cells are transiently transfected with the α4β3δ subunits via the Lipofecatamine method. Cells were passaged at a confluence of about 50-80% and then seeded onto 35 mm sterile culture dishes containing 2 ml culture complete medium without antibiotics or antimycotics. Confluent clusters of cells are electrically coupled (Pritchett et al., 1988). Because responses in distant cells are not adequately voltage clamped and because of uncertainties about the extent of coupling (Verdoorn et al., 1990), cells were cultivated at a density that enables the recording of single cells (without visible connections to other cells).
Whole cell currents were measured with HEKA EPC-10 amplifiers using PatchMaster software or by using the high throughput QPatch platform (Sophion). Bath solution for all experiments contained (in mM): NaCl 137 mM, KCl 4 mM, CaCl2 1.8 mM, MgCl2 1 mM, HEPES 10 mM, D-Glucose 10 mM, pH (NaOH) 7.4. In some cases 0.005% cremophor was also added. Intracellular (pipette) solution contained: KCl 130 mM, MgCl2 1 mM, Mg-ATP 5 mM, HEPES 10 mM, EGTA 5 mM, pH 7.2. During experiments, cells and solutions were maintained at room temperature (19° C.-30° C.). For manual patch clamp recordings, cell culture dishes were placed on the dish holder of the microscope and continuously perfused (1 ml/min) with bath solution. After formation of a Gigaohm seal between the patch electrodes and the cell (pipette resistance range: 2.5 MΩ-6.0 MΩ; seal resistance range: >1 GΩ) the cell membrane across the pipette tip was ruptured to assure electrical access to the cell interior (whole-cell patch-configuration). For experiments using the QPatch system, cells were transferred as suspension to the QPatch system in the bath solution and automated whole cell recordings were performed.
Cells were voltage clamped at a holding potential of −80 mV. For the analysis of test articles, GABA receptors were stimulated by 2 μM GABA after sequential pre-incubation of increasing concentrations of the test article. Pre-incubation duration was 30 s and the duration of the GABA stimulus was 2 s. Test articles were dissolved in DMSO to form stock solutions (10 mM). Test articles were diluted to 0.01, 0.1, 1, and 10 μM in bath solution. All concentrations of test articles were tested on each cell. The relative percentage potentiation was defined as the peak amplitude in response to GABA EC20 in the presence of the test article divided by the peak amplitude in response to GABA EC20 alone, multiplied by 100.

pEC50: −log10 of the molar value.

Consider `C[C@@]1(O)CC[C@H]2[C@H](CC[C@@H]3[C@@H]2CC[C@]2(C)[C@@H](C(=O)Cn4nnc5ccccc54)CC[C@@H]32)C1` [SA-1], for which the activity at 10 µM is over 500%, the maximum response (Emax) fell in the range of 500 to 1000% and the pEC50 is 6.00 to 6.30.
Consider `C[C@@]1(O)CC[C@H]2[C@H](CC[C@@H]3[C@@H]2CC[C@]2(C)[C@@H](C(=O)Cn4ncc5ncccc54)CC[C@@H]32)C1` [SA-3], for which the “α1β2γ2 GABA Qpatch in Ltk (Efficacy at 10 μm)” value (shortened to “α1β2γ2 GABA Qpatch in Ltk”) was “C (“C” indicates an efficacy value of >500%)”, the Emax was 500 to 1000% and the pEC50 is 5.70 to 6.00.
For `C[C@@]1(O)CC[C@H]2[C@H](CC[C@@H]3[C@@H]2CC[C@]2(C)[C@@H](C(=O)Cn4ncc5ccccc54)CC[C@@H]32)C1` [SA-5], in that order: “C (“C” indicates an efficacy value of >500%)”, 500 to 1000% and 5.70 to 6.00.
For `C[C@@]1(O)CC[C@H]2[C@H](CC[C@@H]3[C@@H]2CC[C@]2(C)[C@@H](C(=O)Cn4ncc5c4CCCC5)CC[C@@H]32)C1` [SA-8], in that order: “B (“B” indicates an efficacy value of >100-500%)”, 0 to 500% and 5.70 to 6.00.
Consider `C[C@@]1(O)CC[C@H]2[C@H](CC[C@@H]3[C@@H]2CC[C@]2(C)[C@@H](C(=O)Cn4ncc5cnccc54)CC[C@@H]32)C1` [SA-9], for which the “α1β2γ2 GABA Qpatch in Ltk” value was “B (“B” indicates an efficacy value of >100-500%)”.
On to `C[C@@]1(O)CC[C@H]2[C@H](CC[C@@H]3[C@@H]2CC[C@]2(C)[C@@H](C(=O)Cn4cc5cnccc5n4)CC[C@@H]32)C1` [SA-10], for which the “α1β2γ2 GABA Qpatch in Ltk” value is “C (“C” indicates an efficacy value of >500%)”.
Turning to `C[C@@]1(O)CC[C@H]2[C@H](CC[C@@H]3[C@@H]2CC[C@]2(C)[C@@H](C(=O)Cn4nnc5cnccc54)CC[C@@H]32)C1` [SA-12], the activity at 10 µM lay in the range of 100 to 500%.
On the same count and under the same terms, under `C[C@@]1(O)CC[C@H]2[C@H](CC[C@@H]3[C@@H]2CC[C@]2(C)[C@@H](C(=O)Cn4nnc5ncccc54)CC[C@@H]32)C1` [SA-13] stands over 500%; under `C[C@@]1(O)CC[C@H]2[C@H](CC[C@@H]3[C@@H]2CC[C@]2(C)[C@@H](C(=O)Cn4nnc5cccnc54)CC[C@@H]32)C1` [SA-15], over 500%.
Take `C[C@@]1(O)CC[C@H]2[C@H](CC[C@@H]3[C@@H]2CC[C@]2(C)[C@@H](C(=O)Cn4ncc5cc(F)ccc54)CC[C@@H]32)C1` [SA-17]: the activity at 10 µM was in the range of 100 to 500%.
In the case of `C[C@@]1(O)CC[C@H]2[C@H](CC[C@@H]3[C@@H]2CC[C@]2(C)[C@@H](C(=O)Cn4ncc5cccnc54)CC[C@@H]32)C1` [SA-19], the “α1β2γ2 GABA Qpatch in Ltk” value is “B (“B” indicates an efficacy value of >100-500%)”, the Emax was 500 to 1000% and the pEC50 was under 5.70.
With `C[C@@]1(O)CC[C@H]2[C@H](CC[C@@H]3[C@@H]2CC[C@]2(C)[C@@H](C(=O)Cn4ncc5ccncc54)CC[C@@H]32)C1` [SA-21], the “α1β2γ2 GABA Qpatch in Ltk” value is “B (“B” indicates an efficacy value of >100-500%)”.
For `C[C@@]1(O)CC[C@H]2[C@H](CC[C@@H]3[C@@H]2CC[C@]2(C)[C@@H](C(=O)Cn4ncc5ccc(F)cc54)CC[C@@H]32)C1` [SA-23], the activity at 10 µM was over 500%.
In the case of `Cc1cc2cnn(CC(=O)[C@H]3CC[C@H]4[C@@H]5CC[C@@H]6C[C@](C)(O)CC[C@@H]6[C@H]5CC[C@]34C)c2cn1` [SA-25], the activity at 10 µM is over 500%.
Consider `C[C@@]1(O)CC[C@H]2[C@H](CC[C@@H]3[C@@H]2CC[C@]2(C)[C@@H](C(=O)Cn4ncc5ncc(Cl)cc54)CC[C@@H]32)C1` [SA-27], for which the activity at 10 µM is over 500%.
In the case of `C[C@@]1(O)CC[C@H]2[C@H](CC[C@@H]3[C@@H]2CC[C@]2(C)[C@@H](C(=O)Cn4ncc5nccnc54)CC[C@@H]32)C1` [SA-29], the activity at 10 µM lay within 100 to 500%.
Consider `C[C@@]1(O)CC[C@H]2[C@H](CC[C@@H]3[C@@H]2CC[C@]2(C)[C@@H](C(=O)Cn4ncc5ncncc54)CC[C@@H]32)C1` [SA-33], for which the activity at 10 µM was 100 to 500%.
